Columns and labels:
Assay in all cases: relative viability (nuclei count vs DMSO), 5 days (fraction); higher = more cells survive
NCI-H1355 = test system: NCI-H1355
Outline: (§1)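 Lung cancer cell lines were seeded in 1536-well plates and dosed by pin tool the next day, with either a single drug or a fixed anchor-drug dose combined with five library-drug doses (not always all listed) spaced in √10 steps. Five days later, one step fixed the cells and stained their nuclei (final 0.05% Triton X-100, 1% formaldehyde, 1 ug/ml Hoechst), and nuclei were counted on 4× images. Relative viability is the nuclei count in treated wells divided by the count in vehicle wells, and each value is the median of duplicate plates.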

NCI-H1993 = test system: NCI-H1993
Outline: as §1

NCI-H1944 = test system: NCI-H1944
Outline: as §1

SK-LU-1 = test system: SK-LU-1
Outline: as §1

LCLC-97TM1 = test system: LCLC-97TM1
Outline: as §1

NCI-H647 = test system: NCI-H647
Outline: as §1

NCI-H441 = test system: NCI-H441
Outline: as §1

EMC-BAC-2 = test system: EMC-BAC-2
Outline: as §1

NCI-H2009 = test system: NCI-H2009
Outline: as §1

NCI-H1755 = test system: NCI-H1755
Outline: as §1

NCI-H2170 = test system: NCI-H2170
Outline: as §1

NCI-H1666 = test system: NCI-H1666
Outline: as §1

NCI-H1975 = test system: NCI-H1975
Outline: as §1

SW 1573 = test system: SW 1573
Outline: as §1

NCI-H520 = test system: NCI-H520
Outline: as §1

NCI-H2126 = test system: NCI-H2126
Outline: as §1

NCI-H460 = test system: NCI-H460
Outline: as §1

NCI-H727 = test system: NCI-H727
Outline: as §1

NCI-H2347 = test system: NCI-H2347
Outline: as §1

ABC-1 = test system: ABC-1
Outline: as §1

NCI-H1793 = test system: NCI-H1793
Outline: as §1

PC-14 = test system: PC-14
Outline: as §1

PC-3 [JPC-3] = test system: PC-3 [JPC-3]
Outline: as §1

## O=c1[nH]c2ccccc2n1C1CCN(CCCC(c2ccc(F)cc2)c2ccc(F)cc2)CC1 [Pimozide] + CC(=O)c1c(C)c2cnc(Nc3ccc(N4CCNCC4)cn3)nc2n(C2CCCC2)c1=O [Palbociclib] (partner 0.5 µM)
NCI-H1355; first compound 0.08 µM
  relative viability: 0.338
NCI-H1355; first compound 0.253 µM
  relative viability: 0.387
NCI-H1355; first compound 0.8 µM
  relative viability: 0.329
NCI-H1355; first compound 2.53 µM
  relative viability: 0.388
NCI-H1355; first compound 8 µM
  relative viability: 0.407
NCI-H1993; first compound 0.08 µM
  relative viability: 0.616
NCI-H1993; first compound 0.253 µM
  relative viability: 0.58
NCI-H1993; first compound 0.8 µM
  relative viability: 0.653
NCI-H1993; first compound 2.53 µM
  relative viability: 0.556
NCI-H1993; first compound 8 µM
  relative viability: 0.558
NCI-H1944; first compound 0.08 µM
  relative viability: 0.333
NCI-H1944; first compound 2.53 µM
  relative viability: 0.253
NCI-H1944; first compound 8 µM
  relative viability: 0.334
SK-LU-1; first compound 0.08 µM
  relative viability: 0.384
SK-LU-1; first compound 0.253 µM
  relative viability: 0.533
SK-LU-1; first compound 0.8 µM
  relative viability: 0.404
SK-LU-1; first compound 2.53 µM
  relative viability: 0.377
SK-LU-1; first compound 8 µM
  relative viability: 0.348
LCLC-97TM1; first compound 0.08 µM
  relative viability: 0.203
LCLC-97TM1; first compound 0.253 µM
  relative viability: 0.237
LCLC-97TM1; first compound 0.8 µM
  relative viability: 0.203
LCLC-97TM1; first compound 2.53 µM
  relative viability: 0.167
LCLC-97TM1; first compound 8 µM
  relative viability: 0.251
NCI-H647; first compound 0.08 µM
  relative viability: 0.404
NCI-H647; first compound 0.253 µM
  relative viability: 0.509
NCI-H647; first compound 0.8 µM
  relative viability: 0.384
NCI-H647; first compound 2.53 µM
  relative viability: 0.32
NCI-H647; first compound 8 µM
  relative viability: 0.313
NCI-H441; first compound 0.08 µM
  relative viability: 0.273
NCI-H441; first compound 0.253 µM
  relative viability: 0.252
NCI-H441; first compound 0.8 µM
  relative viability: 0.162
NCI-H441; first compound 2.53 µM
  relative viability: 0.218
NCI-H441; first compound 8 µM
  relative viability: 0.208
EMC-BAC-2; first compound 0.08 µM
  relative viability: 0.517
EMC-BAC-2; first compound 0.253 µM
  relative viability: 0.505
EMC-BAC-2; first compound 0.8 µM
  relative viability: 0.511
EMC-BAC-2; first compound 2.53 µM
  relative viability: 0.506
EMC-BAC-2; first compound 8 µM
  relative viability: 0.495
NCI-H2009; first compound 0.08 µM
  relative viability: 0.202
NCI-H2009; first compound 0.253 µM
  relative viability: 0.307
NCI-H2009; first compound 0.8 µM
  relative viability: 0.178
NCI-H2009; first compound 2.53 µM
  relative viability: 0.226
NCI-H2009; first compound 8 µM
  relative viability: 0.188
NCI-H1755; first compound 0.08 µM
  relative viability: 0.448
NCI-H1755; first compound 0.253 µM
  relative viability: 0.337
NCI-H1755; first compound 0.8 µM
  relative viability: 0.447
NCI-H1755; first compound 2.53 µM
  relative viability: 0.416
NCI-H1755; first compound 8 µM
  relative viability: 0.46
NCI-H2170; first compound 0.08 µM
  relative viability: 0.384
NCI-H2170; first compound 0.253 µM
  relative viability: 0.363
NCI-H2170; first compound 0.8 µM
  relative viability: 0.365
NCI-H2170; first compound 2.53 µM
  relative viability: 0.358
NCI-H2170; first compound 8 µM
  relative viability: 0.369
NCI-H1666; first compound 0.08 µM
  relative viability: 0.603
NCI-H1666; first compound 0.253 µM
  relative viability: 0.653
NCI-H1666; first compound 0.8 µM
  relative viability: 0.606
NCI-H1666; first compound 2.53 µM
  relative viability: 0.715
NCI-H1666; first compound 8 µM
  relative viability: 0.666
NCI-H1975; first compound 0.08 µM
  relative viability: 0.402
NCI-H1975; first compound 0.253 µM
  relative viability: 0.515
NCI-H1975; first compound 0.8 µM
  relative viability: 0.619
NCI-H1975; first compound 2.53 µM
  relative viability: 0.593
NCI-H1975; first compound 8 µM
  relative viability: 0.494
SW 1573; first compound 0.08 µM
  relative viability: 0.422
SW 1573; first compound 0.253 µM
  relative viability: 0.318
SW 1573; first compound 0.8 µM
  relative viability: 0.249
SW 1573; first compound 2.53 µM
  relative viability: 0.214
SW 1573; first compound 8 µM
  relative viability: 0.146
NCI-H520; first compound 0.08 µM
  relative viability: 0.265
NCI-H520; first compound 0.253 µM
  relative viability: 0.22
NCI-H520; first compound 0.8 µM
  relative viability: 0.191
NCI-H520; first compound 2.53 µM
  relative viability: 0.217
NCI-H520; first compound 8 µM
  relative viability: 0.213
NCI-H2126; first compound 0.08 µM
  relative viability: 0.373
NCI-H2126; first compound 0.253 µM
  relative viability: 0.321
NCI-H2126; first compound 0.8 µM
  relative viability: 0.369
NCI-H2126; first compound 2.53 µM
  relative viability: 0.363
NCI-H2126; first compound 8 µM
  relative viability: 0.365
NCI-H460; first compound 0.08 µM
  relative viability: 0.137
NCI-H460; first compound 0.253 µM
  relative viability: 0.188
NCI-H460; first compound 0.8 µM
  relative viability: 0.139
NCI-H460; first compound 2.53 µM
  relative viability: 0.221
NCI-H460; first compound 8 µM
  relative viability: 0.184
NCI-H727; first compound 0.08 µM
  relative viability: 0.544
NCI-H727; first compound 0.253 µM
  relative viability: 0.661
NCI-H727; first compound 0.8 µM
  relative viability: 0.696
NCI-H727; first compound 2.53 µM
  relative viability: 0.676
NCI-H727; first compound 8 µM
  relative viability: 0.609
NCI-H2347; first compound 0.08 µM
  relative viability: 0.432
NCI-H2347; first compound 0.253 µM
  relative viability: 0.418
NCI-H2347; first compound 0.8 µM
  relative viability: 0.463
NCI-H2347; first compound 2.53 µM
  relative viability: 0.455
NCI-H2347; first compound 8 µM
  relative viability: 0.407
ABC-1; first compound 0.08 µM
  relative viability: 0.527
ABC-1; first compound 0.253 µM
  relative viability: 0.565
ABC-1; first compound 0.8 µM
  relative viability: 0.874
ABC-1; first compound 2.53 µM
  relative viability: 0.614
ABC-1; first compound 8 µM
  relative viability: 0.462
NCI-H1793; first compound 0.08 µM
  relative viability: 0.263
NCI-H1793; first compound 0.253 µM
  relative viability: 0.289
NCI-H1793; first compound 0.8 µM
  relative viability: 0.306
NCI-H1793; first compound 2.53 µM
  relative viability: 0.285
NCI-H1793; first compound 8 µM
  relative viability: 0.339
PC-14; first compound 0.253 µM
  relative viability: 0.579
PC-14; first compound 0.8 µM
  relative viability: 0.368
PC-14; first compound 2.53 µM
  relative viability: 0.219
PC-14; first compound 8 µM
  relative viability: 0.178
PC-3 [JPC-3]; first compound 0.253 µM
  relative viability: 0.551
PC-3 [JPC-3]; first compound 0.8 µM
  relative viability: 0.481
PC-3 [JPC-3]; first compound 2.53 µM
  relative viability: 0.544
PC-3 [JPC-3]; first compound 8 µM
  relative viability: 0.509
